Experiments:
[1] = tested on: SETVI (Foxtail, Green); test: Postemergence herbicidal evaluation; assay type: in vivo, Setaria viridis; settings: postemergence
Method in brief: (§1)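 Seedlings grown about two weeks were sprayed at 40 psi with compound dispersed in 50/50 acetone/water plus 0.5% TWEEN 20, at about 0.0156 to 0.500 kg/ha. Plants were kept in the greenhouse and scored 4–5 weeks later on a 0–9 visual scale against untreated controls.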

[2] = tested on: ORYSAT (Rice, Tebonnet); test: Postemergence herbicidal evaluation; assay type: in vivo, Oryza sativa, (L.) Tebonnet; settings: postemergence
Method in brief: as §1

[3] = tested on: ZEAMX (Corn, Field); test: Postemergence herbicidal evaluation; assay type: in vivo, Zea mays; settings: postemergence
Method in brief: as §1

[4] = tested on: ECHCG (Barnyardgrass); test: Preemergence herbicidal evaluation; assay type: in vivo, Echinochloa crus-galli; settings: rated 4-5 weeks after treatment
Method in brief: (§2)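 Rating at 4–5 wk post-spray on a 0–9 visual scale vs control. Application: aqueous acetone, ~0.0156–0.500 kg/ha, to soil surface after seeding, preemergence.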

[5] = tested on: SETVI (Foxtail, Green); test: Preemergence herbicidal evaluation; assay type: in vivo, Setaria viridis; settings: rated 4-5 weeks after treatment
Method in brief: as §2

[6] = tested on: TRZAWR (Wheat, Winter, cv Riband); test: Preemergence herbicidal evaluation; assay type: in vivo, Triticum aestivum; settings: rated 4-5 weeks after treatment
Method in brief: as §2

[7] = tested on: ZEAMX (Corn, Field); test: Preemergence herbicidal evaluation; assay type: in vivo, Zea mays; settings: rated 4-5 weeks after treatment
Method in brief: as §2

[8] = tested on: ECHORC (Watergrass (Calif.)); test: Preemergence weed control under flooded paddy conditions; assay type: in vivo, Echinochloa oryzoides; settings: rated 3-4 weeks after treatment
Method in brief: (§3)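 Flooded-pot preemergence screen with silt loam and seeds in the upper 0.5 cm. Dose about 0.0313 to 0.500 kg/ha, delivered into flood water; visual 0-9 score after 3 to 4 weeks.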

[9] = tested on: CYPIR (Rice Flatsedge); test: as above; assay type: in vivo, Cyperus iria; settings: rated 3-4 weeks after treatment
Method in brief: as §3

[10] = tested on: CYPSE (Flatsedge); test: as above; assay type: in vivo, Cyperus serotinus; settings: rated 3-4 weeks after treatment
Method in brief: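 Herbicidal effect is scored visually on a 0-9 scale against an untreated control, three to four weeks after compounds are pipetted into the flood water (1.5 to 3 cm deep) over seeds planted in silt loam at 0.5 cm depth. Rates: about 0.0313 to 0.500 kg/ha.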

[11] = tested on: ECHORC (Watergrass (Calif.)); test: Postemergence weed control under flooded paddy conditions; assay type: in vivo, Echinochloa oryzoides; settings: postemergence weeds, 3-4 weeks after treatment
Method in brief: (§4)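 Weeds 3 to 5 cm tall and rice seedlings at the 1.5 to 2.5 leaf stage were flooded, with water held 1.5 to 3 cm above the soil. Compounds in 50/50 v/v aqueous/acetone went into the flood water at about 0.0313 to 0.500 kg/ha. Visual 0-9 ratings versus control were made 3 to 4 weeks later.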

[12] = tested on: CYPIR (Rice Flatsedge); test: as above; assay type: in vivo, Cyperus iria; settings: postemergence weeds, 3-4 weeks after treatment
Method in brief: as §4

[13] = tested on: CYPSE (Flatsedge); test: as above; assay type: in vivo, Cyperus serotinus; settings: postemergence weeds, 3-4 weeks after treatment
Method in brief: as §4

[14] = tested on: SAGPY (Arrowhead (Pygmaea)); test: as above; assay type: in vivo, Sagittaria pygmaea; settings: postemergence weeds, 3-4 weeks after treatment
Method in brief: as §4

CCOC(=O)CN1C(=O)C(C)SC1=Nc1cc(-n2c(=O)cc(C(F)(F)F)n(C)c2=O)c(F)cc1Cl (centres unmarked) [Compound 12]
9.0: SETVI herbicidal rating ([1]; rate 0.0625 kg/ha) | SETVI herbicidal rating ([1]; rate 0.1250 kg/ha) | ECHCG preemergence herbicidal rating ([4]; rate 0.1250 kg/ha) | ECHCG preemergence herbicidal rating ([4]; rate 0.2500 kg/ha) | SETVI preemergence herbicidal rating ([5]; rate 0.0313 kg/ha) | SETVI preemergence herbicidal rating ([5]; rate 0.0625 kg/ha) | SETVI preemergence herbicidal rating ([5]; rate 0.1250 kg/ha) | SETVI preemergence herbicidal rating ([5]; rate 0.2500 kg/ha) | Herbicidal rating ECHORC ([8]; 0.0625 kg/ha) | Herbicidal rating ECHORC ([8]; 0.2500 kg/ha) | Herbicidal rating ECHORC ([11]; rate 0.0625 kg/ha) | Herbicidal rating ECHORC ([11]; rate 0.2500 kg/ha)
7.5: ZEAMX herbicidal rating ([3]; rate 0.0625 kg/ha)
2.0: ECHCG preemergence herbicidal rating ([4]; rate 0.0156 kg/ha)
6.5: ZEAMX herbicidal rating ([3]; rate 0.0156 kg/ha) | ZEAMX preemergence herbicidal rating ([7]; rate 0.1250 kg/ha)
5.5: ZEAMX preemergence herbicidal rating ([7]; rate 0.0625 kg/ha)
8.0: ZEAMX herbicidal rating ([3]; rate 0.1250 kg/ha) | TRZAWR preemergence herbicidal rating ([6]; rate 0.1250 kg/ha) | TRZAWR preemergence herbicidal rating ([6]; rate 0.2500 kg/ha)
2.5: ORYSAT herbicidal rating ([2]; rate 0.0156 kg/ha)
0.0: SETVI herbicidal rating ([1]; rate 0.0156 kg/ha) | TRZAWR preemergence herbicidal rating ([6]; rate 0.0156 kg/ha) | Herbicidal rating CYPIR ([9]; 0.0313 kg/ha) | Herbicidal rating CYPIR ([9]; 0.0625 kg/ha) | Herbicidal rating CYPIR ([9]; 0.2500 kg/ha) | Herbicidal rating CYPIR ([12]; rate 0.0313 kg/ha) | Herbicidal rating CYPIR ([12]; rate 0.0625 kg/ha) | Herbicidal rating CYPIR ([12]; rate 0.2500 kg/ha) | Herbicidal rating SAGPY ([14]; rate 0.0313 kg/ha) | Herbicidal rating SAGPY ([14]; rate 0.2500 kg/ha)
1.0: TRZAWR preemergence herbicidal rating ([6]; rate 0.0313 kg/ha) | Herbicidal rating CYPIR ([9]; 0.1250 kg/ha) | Herbicidal rating CYPSE ([10]; 0.0313 kg/ha) | Herbicidal rating CYPSE ([10]; 0.1250 kg/ha) | Herbicidal rating CYPIR ([12]; rate 0.1250 kg/ha) | Herbicidal rating CYPSE ([13]; rate 0.0313 kg/ha) | Herbicidal rating CYPSE ([13]; rate 0.1250 kg/ha) | Herbicidal rating SAGPY ([14]; rate 0.0625 kg/ha)
5.0: ORYSAT herbicidal rating ([2]; rate 0.1250 kg/ha) | ECHCG preemergence herbicidal rating ([4]; rate 0.0313 kg/ha) | TRZAWR preemergence herbicidal rating ([6]; rate 0.0625 kg/ha) | ZEAMX preemergence herbicidal rating ([7]; rate 0.0313 kg/ha) | Herbicidal rating ECHORC ([8]; 0.0313 kg/ha) | Herbicidal rating ECHORC ([11]; rate 0.0313 kg/ha)
6.0: ECHCG preemergence herbicidal rating ([4]; rate 0.0625 kg/ha) | Herbicidal rating CYPSE ([10]; 0.2500 kg/ha) | Herbicidal rating CYPSE ([13]; rate 0.2500 kg/ha)
3.0: ORYSAT herbicidal rating ([2]; rate 0.0313 kg/ha) | ORYSAT herbicidal rating ([2]; rate 0.0625 kg/ha) | Herbicidal rating CYPSE ([10]; 0.0625 kg/ha) | Herbicidal rating CYPSE ([13]; rate 0.0625 kg/ha)
4.0: SETVI herbicidal rating ([1]; rate 0.0313 kg/ha) | ZEAMX preemergence herbicidal rating ([7]; rate 0.0156 kg/ha) | Herbicidal rating SAGPY ([14]; rate 0.1250 kg/ha)
7.0: ZEAMX herbicidal rating ([3]; rate 0.0313 kg/ha)
8.5: SETVI preemergence herbicidal rating ([5]; rate 0.0156 kg/ha) | ZEAMX preemergence herbicidal rating ([7]; rate 0.2500 kg/ha) | Herbicidal rating ECHORC ([8]; 0.1250 kg/ha) | Herbicidal rating ECHORC ([11]; rate 0.1250 kg/ha)

CCOC(=O)CN1C(=O)C(CC)SC1=Nc1cc(-n2c(=O)cc(C(F)(F)F)n(C)c2=O)c(F)cc1Cl (centres unmarked) [Compound 13, Ethyl 2-{{2-chloro-5-[3,6-dihydro-3-methyl-2,6-dioxo-4-(trifluoromethyl)-1(2H)-pyrimidinyl]-4-fluorophenyl}imino}-5-ethyl-4-oxo-3-thiazolidineacetate]
0.5: Herbicidal rating CYPIR ([9]; 0.1250 kg/ha) | Herbicidal rating CYPIR ([12]; rate 0.1250 kg/ha)
4.0: SETVI herbicidal rating ([1]; rate 0.0313 kg/ha) | SETVI herbicidal rating ([1]; rate 0.0625 kg/ha) | TRZAWR preemergence herbicidal rating ([6]; rate 0.1250 kg/ha) | ZEAMX preemergence herbicidal rating ([7]; rate 0.0625 kg/ha)
1.0: ECHCG preemergence herbicidal rating ([4]; rate 0.0625 kg/ha) | TRZAWR preemergence herbicidal rating ([6]; rate 0.0313 kg/ha) | TRZAWR preemergence herbicidal rating ([6]; rate 0.0625 kg/ha) | Herbicidal rating CYPIR ([9]; 0.2500 kg/ha) | Herbicidal rating CYPIR ([12]; rate 0.2500 kg/ha)
0.0: SETVI herbicidal rating ([1]; rate 0.0156 kg/ha) | ECHCG preemergence herbicidal rating ([4]; rate 0.0156 kg/ha) | ECHCG preemergence herbicidal rating ([4]; rate 0.0313 kg/ha) | ZEAMX preemergence herbicidal rating ([7]; rate 0.0156 kg/ha) | Herbicidal rating CYPIR ([9]; 0.0156 kg/ha) | Herbicidal rating CYPIR ([9]; 0.0313 kg/ha) | Herbicidal rating CYPIR ([9]; 0.0625 kg/ha) | Herbicidal rating CYPSE ([10]; 0.0156 kg/ha) | Herbicidal rating CYPSE ([10]; 0.0313 kg/ha) | Herbicidal rating CYPSE ([10]; 0.0625 kg/ha) | Herbicidal rating CYPSE ([10]; 0.1250 kg/ha) | Herbicidal rating CYPSE ([10]; 0.2500 kg/ha) | Herbicidal rating CYPIR ([12]; rate 0.0313 kg/ha) | Herbicidal rating CYPIR ([12]; rate 0.0625 kg/ha) | Herbicidal rating CYPSE ([13]; rate 0.0313 kg/ha) | Herbicidal rating CYPSE ([13]; rate 0.0625 kg/ha) | Herbicidal rating CYPSE ([13]; rate 0.1250 kg/ha) | Herbicidal rating CYPSE ([13]; rate 0.2500 kg/ha) | Herbicidal rating SAGPY ([14]; rate 0.0313 kg/ha) | Herbicidal rating SAGPY ([14]; rate 0.0625 kg/ha) | Herbicidal rating SAGPY ([14]; rate 0.1250 kg/ha) | Herbicidal rating SAGPY ([14]; rate 0.2500 kg/ha)
9.0: SETVI herbicidal rating ([1]; rate 0.1250 kg/ha) | SETVI preemergence herbicidal rating ([5]; rate 0.0625 kg/ha) | SETVI preemergence herbicidal rating ([5]; rate 0.1250 kg/ha) | SETVI preemergence herbicidal rating ([5]; rate 0.2500 kg/ha) | Herbicidal rating ECHORC ([8]; 0.2500 kg/ha) | Herbicidal rating ECHORC ([11]; rate 0.2500 kg/ha)
4.5: SETVI preemergence herbicidal rating ([5]; rate 0.0313 kg/ha)
2.5: ORYSAT herbicidal rating ([2]; rate 0.0313 kg/ha) | ORYSAT herbicidal rating ([2]; rate 0.0625 kg/ha) | SETVI preemergence herbicidal rating ([5]; rate 0.0156 kg/ha)
3.5: Herbicidal rating ECHORC ([8]; 0.0156 kg/ha)
6.0: TRZAWR preemergence herbicidal rating ([6]; rate 0.2500 kg/ha)
5.0: ZEAMX preemergence herbicidal rating ([7]; rate 0.1250 kg/ha)
7.5: ZEAMX herbicidal rating ([3]; rate 0.0625 kg/ha)
7.0: ZEAMX herbicidal rating ([3]; rate 0.0156 kg/ha) | ZEAMX herbicidal rating ([3]; rate 0.0313 kg/ha) | ECHCG preemergence herbicidal rating ([4]; rate 0.1250 kg/ha) | ZEAMX preemergence herbicidal rating ([7]; rate 0.2500 kg/ha) | Herbicidal rating ECHORC ([8]; 0.0625 kg/ha) | Herbicidal rating ECHORC ([11]; rate 0.0625 kg/ha)
5.5: Herbicidal rating ECHORC ([8]; 0.0313 kg/ha) | Herbicidal rating ECHORC ([11]; rate 0.0313 kg/ha)
2.0: ZEAMX preemergence herbicidal rating ([7]; rate 0.0313 kg/ha)
3.0: ORYSAT herbicidal rating ([2]; rate 0.1250 kg/ha)
1.5: ORYSAT herbicidal rating ([2]; rate 0.0156 kg/ha)
8.0: ZEAMX herbicidal rating ([3]; rate 0.1250 kg/ha) | ECHCG preemergence herbicidal rating ([4]; rate 0.2500 kg/ha) | Herbicidal rating ECHORC ([8]; 0.1250 kg/ha) | Herbicidal rating ECHORC ([11]; rate 0.1250 kg/ha)

From patent US20020137929A1, “1 - (3-heterocyclylphenyl) isothiourea, -isourea, -guanidine and -amidine herbicidal agents” (Intellectual Property Department, BASF Aktiengesellschaft, priority 1998, published 2002)
